Where a name gives a salt, the structure may show the parent alone. Read-outs that look alike come from different tables or passages of the source.
Experiments:
DP2 receptor = DP2 receptor (Homo sapiens (Human), UniProt Q9Y5Y4); test: In vitro whole blood eosinophil shape change (ESC) assay, PGD2-induced; assay type: cell-based
Description: Example 17: In Vitro Whole Blood Esoinophil Shape Change Assay
Compound 1 was evaluated in a whole blood assay of eosinophil shape change (ESC) to determine the ability of Compound 1 to antagonize a PGD2-stimulated functional response in the context of whole blood.
Blood is drawn from consenting human volunteers in EDTA vacutainer tubes and used within 1 hr of draw. A 98 μl aliquot of blood is mixed with 2 μl of Compound 1 (in 50% DMSO) in 1.2 ml polypropylene tubes. The blood is vortexed and incubated at 37° C. for 5 minutes. 5 μl of 1 μM PGD2 in PBS is added for a final concentration of 50 nM and the tubes briefly vortexed. The reactions are incubated for exactly 5 minutes at 37° C. and then terminated by placing the tubes on ice and immediately adding 250 μl of ice-cold 1:4 diluted Cytofix (BD Biosciences). The reactions are transferred to […] polystyrene round bottom tubes and the red blood cells lysed by the addition of 3 ml ammonium chloride lysing solution (150 mM NH4C1, 10 mM KHCO3, 0.1 mM EDTA disodium salt) and incubation at room temperature for 15 minutes. The cells are pelleted by spinning at 1300 rpm for 5 minutes at 4° C. and washed once with 3 ml ice-cold PBS. The cells are resuspended in 0.2 ml of ice-cold 1:4 diluted Cytofix (BD Biosciences) and analyzed on a FACSCalibur (BD Biosciences) within 2 hours. Eosinophils were gated on the basis of autofluorescence in the FL2 channel and shape change on 500 eosinophils was assayed by forward scatter and side scatter analysis. The specific change in shape induced by PGD2 was calculated as the difference between the percentage of high forward scatter eosinophils in the presence and absence of PGD2. IC50s were determined using Graphpad Prism® analysis of drug titration curves.

guinea pig DP2 receptor = guinea pig DP2 receptor (Cavia porcellus, UniProt H0W1T0); test: In vitro DP2/CRTH2 radioligand ([3H]PGD2) membrane binding assay
Description: (§1) Example 15: In Vitro DP2/CRTH2 Binding Assay
The ability of Compound 1 to bind to the human DP2 receptor was assessed via a radioligand binding assay using [^3H]PGD2. HEK293 cells stably expressing recombinant human DP2 are resuspended in 10 mM Hepes, 7.4 containing 1 mM DTT, lysed and centrifuged at 75,000×g to pellet the membranes. The membranes are resuspended in 10 mM Hepes, 7.4 containing 1 mM DTT and 10% glycerol to approximately 5 mg protein/ml. Membranes (2-10 μg protein/well) are incubated in 96-well plates with 1 nM [^3H]PGD2 and Compound 1 in Assay Buffer (50 mM Hepes, 10 mM MnCl2, 1 mM EDTA, plus or minus 0.2% human serum albumin, pH 7.4) for 60 minutes at room temperature. The reactions are terminated by rapid filtration through Whatman GF/C glass fibre filter plates. The filter plates were pre-soaked in 0.33% polythylenimine for 30 minutes at room temperature then washed in Wash Buffer (50 mM Hepes, 0.5 M NaCl pH 7.4) prior to harvesting. After harvesting, the filter plates are washed 3 times with 1 ml cold Wash Buffer then dried. Scintillant is then added to the plates and the radioactivity retained on the filters is determined on a Packard TopCount (Perkin Elmer). Specific binding is determined as total radioactive binding minus non-specific binding in the presence of 10 μM PGD2. IC50s were determined using GraphPad prism analysis of drug titration curves. […]

[1] = Plasma concentrations in guinea pig allergic asthma model; assay type: in vivo; conditions: for concentration at 3 h: oral, 3 hours post dose, read-out: mean plasma Compound 1 concentration
Description: Plasma Compound 1 concentrations were determined 3 hours and 24 hours post dose. […] At 60 mg/kg, a mean plasma concentration of 371.7±303.8 was observed 3 hours post dose. At 100 mg/kg, a mean plasma concentration of 360.8±131.3 was observed 3 hours post dose.

CYP2C9 = CYP2C9 (Homo sapiens (Human), UniProt P11712); assay type: in vitro ADME; conditions: human hepatocytes, 10 μM
[2] = Plasma concentrations in mouse smoke model; assay type: in vivo
Description: BALB/c mice were exposed to the smoke of 7 unfiltered cigarettes per day via whole-body exposure on days 0, 1, and 2 for a total of 1.75 hours per day. […] The plasma concentrations for Compound 1 measured at trough were 85 and 588 nM at 10 mg/kg and 50 mg/kg, respectively.

CYP3A4 = CYP3A4 (Homo sapiens (Human), UniProt P08684); conditions: human hepatocytes, 10 μM
rat DP2 = rat DP2 (Rattus norvegicus (Rat), UniProt Q6XKD3); test: In vitro DP2/CRTH2 radioligand ([3H]PGD2) membrane binding assay; conditions: average
Description: as §1
(§2) The ability of Compound 1 to bind to the human DP2 receptor was assessed via a radioligand binding assay using [^3H]PGD2. HEK293 cells stably expressing recombinant human DP2 are resuspended in 10 mM Hepes, 7.4 containing 1 mM DTT, lysed and centrifuged at 75,000×g to pellet the membranes. The membranes are resuspended in 10 mM Hepes, 7.4 containing 1 mM DTT and 10% glycerol to approximately 5 mg protein/ml. Membranes (2-10 μg protein/well) are incubated in 96-well plates with 1 nM [^3H]PGD2 and Compound 1 in Assay Buffer (50 mM Hepes, 10 mM MnCl2, 1 mM EDTA, plus or minus 0.2% human serum albumin, pH 7.4) for 60 minutes at room temperature. The reactions are terminated by rapid filtration through Whatman GF/C glass fibre filter plates. The filter plates were pre-soaked in 0.33% polythylenimine for 30 minutes at room temperature then washed in Wash Buffer (50 mM Hepes, 0.5 M NaCl pH 7.4) prior to harvesting. After harvesting, the filter plates are washed 3 times with 1 ml cold Wash Buffer then dried. Scintillant is then added to the plates and the radioactivity retained on the filters is determined on a Packard TopCount (Perkin Elmer). Specific binding is determined as total radioactive binding minus non-specific binding in the presence of 10 μM PGD2. IC50s were determined using GraphPad prism analysis of drug titration curves. Mouse, rat and guinea pig DP2 receptors were also investigated.
(§3) The binding potency of Compound 1 is only slightly shifted in the presence of species-specific serum albumin.

mouse DP2 = mouse DP2 (Mus musculus (Mouse), UniProt Q9Z2J6); test: as above; conditions: average
Description: as §1, §2, §3

CYP2D6 = CYP2D6 (Homo sapiens (Human), UniProt P10635); test: Extracellular cytochrome P450 inhibition (microsomes); assay type: in vitro ADME; conditions: 2D6, dextromethorphan O-demethylation
Chain of CYP2D6 (P10635 whole entry): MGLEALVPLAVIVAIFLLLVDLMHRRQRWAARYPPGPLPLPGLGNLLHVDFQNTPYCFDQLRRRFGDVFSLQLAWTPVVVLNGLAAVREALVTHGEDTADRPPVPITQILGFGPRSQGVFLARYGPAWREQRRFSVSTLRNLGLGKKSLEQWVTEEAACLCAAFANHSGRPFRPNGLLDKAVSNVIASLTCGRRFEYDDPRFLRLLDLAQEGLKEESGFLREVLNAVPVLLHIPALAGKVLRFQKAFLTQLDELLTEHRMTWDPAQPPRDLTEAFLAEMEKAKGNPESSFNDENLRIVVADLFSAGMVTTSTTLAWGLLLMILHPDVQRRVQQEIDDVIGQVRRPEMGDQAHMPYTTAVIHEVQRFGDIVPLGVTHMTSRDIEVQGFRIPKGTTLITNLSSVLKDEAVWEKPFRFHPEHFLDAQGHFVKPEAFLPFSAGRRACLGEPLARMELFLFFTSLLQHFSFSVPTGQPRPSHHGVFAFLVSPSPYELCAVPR

Chain of DP2 receptor (Q9Y5Y4 whole entry): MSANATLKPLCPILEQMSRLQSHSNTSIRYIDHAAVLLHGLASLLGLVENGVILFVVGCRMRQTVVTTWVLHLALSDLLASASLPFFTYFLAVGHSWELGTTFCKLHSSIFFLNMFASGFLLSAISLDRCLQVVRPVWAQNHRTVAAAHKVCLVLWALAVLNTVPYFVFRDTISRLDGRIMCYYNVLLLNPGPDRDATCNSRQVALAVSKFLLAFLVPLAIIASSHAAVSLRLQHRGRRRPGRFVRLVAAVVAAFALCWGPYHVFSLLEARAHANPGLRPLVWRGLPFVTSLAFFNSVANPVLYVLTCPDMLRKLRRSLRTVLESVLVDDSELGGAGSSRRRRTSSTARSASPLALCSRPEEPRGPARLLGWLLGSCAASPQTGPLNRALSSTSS
Chain of mouse DP2 (Q9Z2J6 whole entry): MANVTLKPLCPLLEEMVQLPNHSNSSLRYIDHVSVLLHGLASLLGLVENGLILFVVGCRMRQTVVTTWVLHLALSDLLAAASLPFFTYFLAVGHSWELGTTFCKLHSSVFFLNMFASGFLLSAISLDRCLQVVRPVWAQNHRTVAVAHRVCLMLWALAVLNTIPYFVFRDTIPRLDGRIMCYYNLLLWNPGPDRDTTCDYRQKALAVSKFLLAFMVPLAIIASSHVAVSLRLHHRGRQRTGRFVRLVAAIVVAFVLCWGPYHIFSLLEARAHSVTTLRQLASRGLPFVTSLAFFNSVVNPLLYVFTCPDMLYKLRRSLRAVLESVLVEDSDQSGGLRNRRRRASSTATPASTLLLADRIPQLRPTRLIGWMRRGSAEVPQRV
Chain of rat DP2 (Q6XKD3 whole entry): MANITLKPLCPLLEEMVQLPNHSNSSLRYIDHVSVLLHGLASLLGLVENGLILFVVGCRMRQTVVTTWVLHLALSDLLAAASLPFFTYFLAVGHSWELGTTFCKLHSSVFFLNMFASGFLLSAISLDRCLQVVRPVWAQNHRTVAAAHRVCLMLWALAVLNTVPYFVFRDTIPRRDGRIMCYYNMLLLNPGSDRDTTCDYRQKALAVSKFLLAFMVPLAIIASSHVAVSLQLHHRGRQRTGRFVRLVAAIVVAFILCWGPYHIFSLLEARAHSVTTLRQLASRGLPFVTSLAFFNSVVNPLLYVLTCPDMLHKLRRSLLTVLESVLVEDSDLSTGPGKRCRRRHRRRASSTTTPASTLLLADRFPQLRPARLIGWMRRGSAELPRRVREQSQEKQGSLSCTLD
Chain of guinea pig DP2 receptor (H0W1T0 1-391): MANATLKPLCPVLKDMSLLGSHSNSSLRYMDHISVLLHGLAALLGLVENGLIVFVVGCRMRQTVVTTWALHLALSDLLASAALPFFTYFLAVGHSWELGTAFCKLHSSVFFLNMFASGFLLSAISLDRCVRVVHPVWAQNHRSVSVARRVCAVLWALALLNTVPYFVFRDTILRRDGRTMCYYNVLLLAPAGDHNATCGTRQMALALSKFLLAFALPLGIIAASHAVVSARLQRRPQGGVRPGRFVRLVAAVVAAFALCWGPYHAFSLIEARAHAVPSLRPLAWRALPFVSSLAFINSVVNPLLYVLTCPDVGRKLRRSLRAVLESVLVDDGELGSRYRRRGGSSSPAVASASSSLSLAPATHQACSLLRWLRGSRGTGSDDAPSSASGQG

Row | SMILES | IC90 (DP2 receptor) [nM] | IC50 (DP2 receptor; average, 50 nM PGD2, read-out: IC50, PGD2-induced eosinophil shape change in human whole blood) [nM] | IC90 (DP2 receptor; same value expressed in ng/mL) [ng/mL] | IC50 (DP2 receptor; same value expressed in ng/mL, read-out: IC50, human ESC (converted)) [nM] | IC50 (guinea pig DP2 receptor; 0.2% guinea pig serum albumin, read-out: IC50, radioligand membrane binding on guinea pig DP2) [nM] | IC50 (guinea pig DP2 receptor; average, without serum albumin, read-out: IC50, inhibition of radiolabeled PGD2 binding to guinea pig DP2) [nM] | concentration at 24 h ([1]; 24 hours after oral dose, each dose amount, below lower limit of quantitation, read-out: plasma Compound 1 concentration) [nM] | concentration at 3 h ([1]; 30 mg/kg) [nM] | concentration at 3 h ([1]; 60 mg/kg) [nM] | concentration at 3 h ([1]; 100 mg/kg) [nM] | induction of CYP2C9 (CYP2C9) | plasma concentration for Compound 1 at trough ([2]; 10 mg/kg PO daily) [nM] | plasma concentration for Compound 1 at trough ([2]; 50 mg/kg PO daily) [nM] | induction of CYP3A4 (CYP3A4) | IC50 (rat DP2; 0.2% species-specific albumin, read-out: IC50, radioligand membrane binding on rat DP2) [nM] | IC50 (rat DP2; without serum albumin, read-out: IC50, inhibition of radiolabeled PGD2 binding to rat DP2) [nM] | IC50 (mouse DP2; 0.2% species-specific albumin, read-out: IC50, radioligand membrane binding on mouse DP2) [nM] | IC50 (mouse DP2; without serum albumin, read-out: IC50, inhibition of radiolabeled PGD2 binding to mouse DP2) [nM] | IC50 (CYP2D6) [nM]
1 | COc1ccc(CC(=O)O)cc1Oc1ccc(NC(=O)C(C)(C)C)cc1CSC(C)(C)C [Compound 1, 2-(3-(2-((tert-butylthio)methyl)-4-(2,2-dimethyl-propionylamino)phenoxy)-4-methoxyphenyl)acetic acid] | 5.5 | 1.5 | 2.6 | 1.52 | 20.3 | 10.6 | < 40 | 107 ± 31.7 | 372 ± 304 | 361 ± 131 | not a strong inducer | 85 | 588 | not a strong inducer | 10.4 | 7 | 11.4 | 9.7 | –
2 | COc1ccc(CC(=O)O)cc1Oc1ccc(NC(=O)C(C)(C)C)cc1CSC(C)(C)C [Compound 2, 2-(3-(2-((tert-butylthio)methyl)-4-(2,2-dimethyl-propionylamino)phenoxy)-4-methoxyphenyl)acetic acid, sodium salt] | – | – | – | – | – | – | – | – | – | – | – | – | – | – | – | – | – | – | > 50000

Reference: US9688624B2, “DP2 antagonist and uses thereof” (Brickell Biotech, Inc., priority 2010, dated 2017)
